Laboratory results as given in patent publication US20230114728A1 (Venatorx Pharmaceuticals, Inc., priority 2019, published 2023).
In brackets after ≈: the same amount, converted by molar mass.

What was measured:
Assay in all cases: Broth microdilution MIC in CAMHB
Type in all cases: cell-based
[1] = tested on: P. aeruginosa (ΔmexAB-oprM); settings: Pseudomonas aeruginosa, read-out: Minimum Inhibitory Concentration, P. aeruginosa ΔmexAB-OprM
Outline: (§1)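 MIC, read by eye, is the lowest compound concentration giving no bacterial growth after 16-20 h at 37° C. Test compounds are serially diluted 2-fold in CAMHB and seeded with 2-8×10^5 CFU/mL of bacteria taken from a 3-5 h shaking culture, following CLSI methods.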

A. baumannii ATCC 19606 = settings: Acinetobacter baumannii, ATCC19606; MHB; read-out: Minimum Inhibitory Concentration, A. baumannii ATCC 19606
Outline: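 Colonies from cation-adjusted Mueller Hinton agar are grown in broth (3-5 h, 37° C), adjusted by OD600, and added at 2-8×10^5 CFU/mL to 2-fold compound dilutions. After 16-20 h at 37° C, the lowest concentration without growth is taken as MIC.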

E. coli ATCC 25922 = settings: Escherichia coli, ATCC25922; E. coli ATCC 25922; MHB; read-out: Minimum Inhibitory Concentration, E. coli 25922
Outline: as §1

E. coli AG100A = settings: Escherichia coli, read-out: Minimum Inhibitory Concentration, E. coli AG100A
Outline: as §1

E. coli 901C = settings: Escherichia coli; E. coli 901C (hyper-permeable); MHB; read-out: Minimum Inhibitory Concentration, E. coli 901C
Outline: as §1

[2] = tested on: K. pneumoniae UMM producing SHV-5 and KPC-2; settings: Klebsiella pneumoniae, read-out: Minimum Inhibitory Concentration, K. pneumoniae UMM
Outline: as §1

P. aeruginosa ATCC 27853 = settings: Pseudomonas aeruginosa, ATCC27853; MHB; read-out: Minimum Inhibitory Concentration, P. aeruginosa ATCC 27853
Outline: as §1

E. coli AG100 = settings: Escherichia coli; E. coli AG100 (wild-type parent); MHB; read-out: Minimum Inhibitory Concentration, E. coli AG100
Outline: as §1

[3] = tested on: K. pneumoniae 848844 producing SHV-11 and KPC-2; settings: Klebsiella pneumoniae, read-out: Minimum Inhibitory Concentration, K. pneumoniae 848844
Outline: as §1

[4] = tested on: K. pneumoniae SI-117 producing VIM-1; settings: Klebsiella pneumoniae, read-out: Minimum Inhibitory Concentration, K. pneumoniae SI-117
Outline: as §1

P. aeruginosa ATCC 35151 = settings: Pseudomonas aeruginosa, ATCC35151; MHB; hyper-permeable strain; read-out: Minimum Inhibitory Concentration, P. aeruginosa ATCC 35151
Outline: as §1

E. coli D22 = settings: Escherichia coli; E. coli D22 (hyper-permeable); MHB; read-out: Minimum Inhibitory Concentration, E. coli D22
Outline: as §1

Row | Structure (SMILES) | MIC [1] [µg/mL] | MIC (A. baumannii ATCC 19606) [µg/mL] | MIC (E. coli ATCC 25922) [µg/mL] | MIC (E. coli AG100A) [µg/mL] | MIC (E. coli 901C) [µg/mL] | MIC [2] [µg/mL] | MIC (P. aeruginosa ATCC 27853) [µg/mL] | MIC (E. coli AG100) [µg/mL] | MIC [3] [µg/mL] | MIC [4] [µg/mL] | MIC (P. aeruginosa ATCC 35151) [µg/mL] | MIC (E. coli D22) [µg/mL]
1 | CS(=O)(=O)N1CCN(C(=O)N[C@H](C(=O)N[C@H]2Cc3cccc(C(=O)O)c3OB2O)c2c(F)cc(O)cc2F)C1=O (single isomer, unassigned) [Example 136] | > 128 | > 128 | > 128 | 8 to 16 (≈ 13.7 to 27.5 µM) | 0.5 to 1 (≈ 0.859 to 1.72 µM) | > 128 | > 128 | > 128 | > 128 | > 128 | 2 to 4 (≈ 3.43 to 6.87 µM) | 8 to 16 (≈ 13.7 to 27.5 µM)
2 | CCN1CCN(C(=O)N[C@H](C(=O)N[C@H]2Cc3cccc(C(=O)O)c3OB2O)c2ccc(C(=O)O)c(F)c2F)C(=O)C1=O (single isomer, unassigned) [Example 139] | 8 to 16 (≈ 13.6 to 27.2 µM) | > 128 | > 128 | 8 to 16 (≈ 13.6 to 27.2 µM) | < 0.25 | 32 to 64 (≈ 54.4 to 109 µM) | > 128 | 32 to 64 (≈ 54.4 to 109 µM) | > 128 | > 128 | 0.5 to 1 (≈ 0.85 to 1.7 µM) | 2 to 4 (≈ 3.4 to 6.8 µM)
3 | CCN1CCN(C(=O)N[C@@H](C(=O)N[C@H]2Cc3cccc(C(=O)O)c3OB2O)c2ccc(C(=O)O)c(F)c2F)C(=O)C1=O (single isomer, unassigned) [Example 140] | 8 to 16 (≈ 13.6 to 27.2 µM) | > 128 | 32 to 64 (≈ 54.4 to 109 µM) | 2 to 4 (≈ 3.4 to 6.8 µM) | < 0.25 | 32 to 64 (≈ 54.4 to 109 µM) | > 128 | 32 to 64 (≈ 54.4 to 109 µM) | > 128 | > 128 | < 0.25 | 2 to 4 (≈ 3.4 to 6.8 µM)
4 | CCN1CCN(C(=O)N[C@H](C(=O)N[C@H]2Cc3cccc(C(=O)O)c3OB2O)c2ccc(C(=O)O)cc2O)C(=O)C1=O (single isomer, unassigned) [Example 143] | > 128 | > 128 | > 128 | 32 to 64 (≈ 56.3 to 113 µM) | 0.5 to 1 (≈ 0.88 to 1.76 µM) | > 128 | > 128 | > 128 | > 128 | > 128 | 2 to 4 (≈ 3.52 to 7.04 µM) | 8 to 16 (≈ 14.1 to 28.2 µM)
5 | CCN1CCN(C(=O)N[C@@H](C(=O)N[C@H]2Cc3cccc(C(=O)O)c3OB2O)c2ccc(C(=O)O)cc2O)C(=O)C1=O (single isomer, unassigned) [Example 144] | 8 to 16 (≈ 14.1 to 28.2 µM) | 32 to 64 (≈ 56.3 to 113 µM) | 32 to 64 (≈ 56.3 to 113 µM) | 8 to 16 (≈ 14.1 to 28.2 µM) | < 0.25 | 32 to 64 (≈ 56.3 to 113 µM) | > 128 | 32 to 64 (≈ 56.3 to 113 µM) | > 128 | > 128 | 0.5 to 1 (≈ 0.88 to 1.76 µM) | 2 to 4 (≈ 3.52 to 7.04 µM)
6 | CCN1CCN(C(=O)N[C@@H](C(=O)N[C@H]2Cc3cccc(C(=O)O)c3OB2O)c2ccc(C(=O)O)c(F)c2)C(=O)C1=O (single isomer, unassigned) [Example 146] | 8 to 16 (≈ 14 to 28.1 µM) | 32 to 64 (≈ 56.1 to 112 µM) | 32 to 64 (≈ 56.1 to 112 µM) | 2 to 4 (≈ 3.51 to 7.01 µM) | < 0.25 | 32 to 64 (≈ 56.1 to 112 µM) | 32 to 64 (≈ 56.1 to 112 µM) | 32 to 64 (≈ 56.1 to 112 µM) | > 128 | > 128 | < 0.25 | 2 to 4 (≈ 3.51 to 7.01 µM)
7 | CCN1CCN(C(=O)N[C@H](C(=O)N[C@H]2Cc3cccc(C(=O)O)c3OB2O)c2ccc(C(=O)O)c(F)c2)C(=O)C1=O (single isomer, unassigned) [Example 147] | 8 to 16 (≈ 14 to 28.1 µM) | > 128 | 32 to 64 (≈ 56.1 to 112 µM) | 2 to 4 (≈ 3.51 to 7.01 µM) | < 0.25 | 32 to 64 (≈ 56.1 to 112 µM) | > 128 | 32 to 64 (≈ 56.1 to 112 µM) | > 128 | > 128 | < 0.25 | 2 to 4 (≈ 3.51 to 7.01 µM)
8 | CCN1CCN(C(=O)N[C@@H](C(=O)N[C@H]2Cc3cccc(C(=O)O)c3OB2O)c2cc(F)c(C(=O)O)cc2Cl)C(=O)C1=O (single isomer, unassigned) [Example 148] | 8 to 16 (≈ 13.2 to 26.5 µM) | > 128 | > 128 | 8 to 16 (≈ 13.2 to 26.5 µM) | < 0.25 | 32 to 64 (≈ 52.9 to 106 µM) | > 128 | 32 to 64 (≈ 52.9 to 106 µM) | > 128 | > 128 | < 0.25 | 2 to 4 (≈ 3.31 to 6.61 µM)
